# Values of other authors as cited in patent US9072768B2, “Composition and method for increasing effectiveness of radiation or chemotherapy” (Kibow Biotech, Inc., priority 2013, dated 2015).
# Tested on: colorectal cancer
# Conditions: adjuvant treatment, stage III patients
smiles,measurement,value
O=c1[nH]cc(F)c(=O)[nH]1 [5-Fluorouracil],improvement of absolute 5-year survival,approximately 10%
